US20110040086A1, “Novel Beta-Lactam Antibiotics, Methods for Their Production, and Their Use” (DRITTE PATENTPORTFOLIO BETEILIGUNGSGESELLSCHAFT MB, priority 2007, published 2011)

Experiments:
[1] = tested on: Enterococcus faecalis 769; test: agar diffusion test (Test System II, multi-resistant germs); type: cell-based; parameters: key: r = resistant (no detectable zone of inhibition)
In short: (§1)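 A McFarland 0.5 bacterial suspension in physiological saline is spread vertically, horizontally and transversely over Müller-Hinton agar II. Three sensi-discs bearing 10, 50 and 100 μg of test compound go onto each plate, which then incubates at 37 °C for 18-20 h before zone diameters are recorded.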

[2] = tested on: Staphylococcus aureus 315; test: as above; type: cell-based; parameters: key: r = resistant (no detectable zone of inhibition)
In short: as §1

E. faecalis 945 = test: as above; type: cell-based, Enterococcus faecalis; parameters: key: r = resistant (no detectable zone of inhibition)
In short: as §1

S. aureus 33490 = test: as above; type: cell-based, Staphylococcus aureus; parameters: key: r = resistant (no detectable zone of inhibition)
In short: as §1

S. aureus 34289 = test: as above; type: cell-based, Staphylococcus aureus; parameters: key: r = resistant (no detectable zone of inhibition)
In short: as §1

S. aureus 36881 = test: as above; type: cell-based, Staphylococcus aureus; parameters: key: r = resistant (no detectable zone of inhibition)
In short: as §1

S. aureus 39105 = test: as above; type: cell-based, Staphylococcus aureus; parameters: key: r = resistant (no detectable zone of inhibition)
In short: as §1

S. aureus 520 = test: as above; type: cell-based, Staphylococcus aureus; parameters: key: r = resistant (no detectable zone of inhibition)
In short: as §1

S. aureus 526 = test: as above; type: cell-based, Staphylococcus aureus; parameters: key: r = resistant (no detectable zone of inhibition)
In short: as §1

[3] = tested on: S. aureus North Germany strain; test: as above; type: cell-based, Staphylococcus aureus; parameters: key: r = resistant (no detectable zone of inhibition)
In short: as §1

S. aureus 38418 = test: as above; type: cell-based, Staphylococcus aureus
In short: as §1

S. aureus ATCC 6538 = test: as above; type: cell-based, Staphylococcus aureus
In short: as §1

S. epidermidis 1068 = test: as above; type: cell-based, Staphylococcus epidermidis
In short: as §1

S. epidermidis 1071 = test: as above; type: cell-based, Staphylococcus epidermidis
In short: as §1

S. epidermidis 563 = test: as above; type: cell-based, Staphylococcus epidermidis
In short: as §1

S. epidermidis 847 = test: as above; type: cell-based, Staphylococcus epidermidis
In short: as §1

S. epidermidis 125 = test: as above; type: cell-based, Staphylococcus epidermidis
In short: as §1

[4] = tested on: Staphylococcus aureus ATCC 6538; test: mouse infected with Staphylococcus aureus infection model (survival); type: in vivo, BALB/c mice; conditions: 2 × 1.5 mg (75 mg/kg) i.p.
In short: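 Survival model: S. aureus grown to extinction 0.6 at 550 nm and injected i.p. (10 μl/g body weight) into cyclophosphamide-pretreated BALB/c mice (250 then 100 mg/kg i.p.), ≥3 animals per arm. Test antibiotic dosed i.p. at 30 min and again later at the same concentration, vehicle PBS/3% DMSO.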

3-chlorine-7-[2-(2-methoxycarbonyl-3,6-dioxocyclohexa-1,4-dienylamino)-2-phenyl-acetylamino]-8-oxo-1-thia-5-azabicyclo[4.2.0]oct-3-en-4-carboxylic acid [1k]
Diameter of zone of inhibition ([1]; Quantity n 0.029): r
Diameter of zone of inhibition ([1]; Quantity n 0.14): 8 mm
Diameter of zone of inhibition ([1]; Quantity n 0.29): 14 mm
Diameter of zone of inhibition ([2]; Quantity n 0.029): r
Diameter of zone of inhibition ([2]; Quantity n 0.14): 12 mm
Diameter of zone of inhibition ([2]; Quantity n 0.29): 14 mm
Diameter of zone of inhibition (E. faecalis 945; Quantity n 0.029): r
Diameter of zone of inhibition (E. faecalis 945; Quantity n 0.14): r
Diameter of zone of inhibition (E. faecalis 945; Quantity n 0.29): r
Diameter of zone of inhibition (S. aureus 33490; Quantity n [μmol] 0.029): 16 mm
Diameter of zone of inhibition (S. aureus 33490; Quantity n [μmol] 0.14): 24 mm
Diameter of zone of inhibition (S. aureus 33490; Quantity n [μmol] 0.29): 26 mm
Diameter of zone of inhibition (S. aureus 34289; Quantity n [mol] 0.029): r
Diameter of zone of inhibition (S. aureus 34289; Quantity n [mol] 0.14): r
Diameter of zone of inhibition (S. aureus 34289; Quantity n [mol] 0.29): r
Diameter of zone of inhibition (S. aureus 36881; Quantity n 0.029): r
Diameter of zone of inhibition (S. aureus 36881; Quantity n 0.14): 14 mm
Diameter of zone of inhibition (S. aureus 36881; Quantity n 0.29): 18 mm
Diameter of zone of inhibition (S. aureus 39105; Quantity n 0.029): 8 mm
Diameter of zone of inhibition (S. aureus 39105; Quantity n 0.14): 20 mm
Diameter of zone of inhibition (S. aureus 39105; Quantity n 0.29): 22 mm
Diameter of zone of inhibition (S. aureus 520; Quantity n [mol] 0.029): r
Diameter of zone of inhibition (S. aureus 520; Quantity n [mol] 0.14): r
Diameter of zone of inhibition (S. aureus 520; Quantity n [mol] 0.29): 10 mm
Diameter of zone of inhibition (S. aureus 526; Quantity n 0.029): r
Diameter of zone of inhibition (S. aureus 526; Quantity n 0.14): r
Diameter of zone of inhibition (S. aureus 526; Quantity n 0.29): r
Diameter of zone of inhibition ([3]; Quantity n 0.029): r
Diameter of zone of inhibition ([3]; Quantity n 0.14): 14 mm
Diameter of zone of inhibition ([3]; Quantity n 0.29): 18 mm
Diameter of zone of inhibition (S. aureus 38418; Quantity n [mol] 0.029): 22 mm
Diameter of zone of inhibition (S. aureus 38418; Quantity n [mol] 0.14): 30 mm
Diameter of zone of inhibition (S. aureus 38418; Quantity n [mol] 0.29): 34 mm
Diameter of zone of inhibition (S. aureus ATCC 6538; Quantity n 0.029): 28 mm
Diameter of zone of inhibition (S. aureus ATCC 6538; Quantity n 0.14): 36 mm
Diameter of zone of inhibition (S. aureus ATCC 6538; Quantity n 0.29): 38 mm
Diameter of zone of inhibition (S. epidermidis 1068; Quantity n 0.029): 14 mm
Diameter of zone of inhibition (S. epidermidis 1068; Quantity n 0.14): 22 mm
Diameter of zone of inhibition (S. epidermidis 1068; Quantity n 0.29): 24 mm
Diameter of zone of inhibition (S. epidermidis 1071; Quantity n 0.029): 18 mm
Diameter of zone of inhibition (S. epidermidis 1071; Quantity n 0.14): 24 mm
Diameter of zone of inhibition (S. epidermidis 1071; Quantity n 0.29): 28 mm
Diameter of zone of inhibition (S. epidermidis 563; Quantity n 0.029): 18 mm
Diameter of zone of inhibition (S. epidermidis 563; Quantity n 0.14): 28 mm
Diameter of zone of inhibition (S. epidermidis 563; Quantity n 0.29): 30 mm
Diameter of zone of inhibition (S. epidermidis 847; Quantity n [mol] 0.029): 8 mm
Diameter of zone of inhibition (S. epidermidis 847; Quantity n [mol] 0.14): 24 mm
Diameter of zone of inhibition (S. epidermidis 847; Quantity n [mol] 0.29): 28 mm
Diameter of zone of inhibition (S. epidermidis 125; Quantity n 0.029): 20 mm
Diameter of zone of inhibition (S. epidermidis 125; Quantity n 0.14): 30 mm
Diameter of zone of inhibition (S. epidermidis 125; Quantity n 0.29): 32 mm
Survival/tested mice n/n [4]: 3/3
